GI50 and TGI data for 13 molecules are collected here from PubChem BioAssay (NCI).

Test systems include 786-0 renal; ACHN renal; CAKI-1 renal; HL-60(TB) leukemia; OVCAR-4 ovarian; OVCAR-8 ovarian; RPMI-8226 leukemia; SR leukemia; HOP-92 NSCLC; MALME-3M melanoma.
Holding throughout (assay): NCI anticancer screen, dose series, 48 h

Each structure is given as a SMILES string.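 1) Cells in 96-well plates. 2) Compound, 48 h, 5 concentrations. 3) Linear interpolation between surrounding doses. 4) Unreached endpoint = highest concentration. Abbreviation: GI50, concentration required for 50% inhibition of growth. TGI: concentration producing complete growth inhibition.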

Turning to `COc1cc([N+](=O)[O-])c2ncccc2c1[N+](=O)[O-]`, the GI50 with 786-0 renal is 10.7 µM; with ACHN renal it was 4.75 µM; in the assay with CAKI-1 renal, 1650 nM; in the assay with HL-60(TB) leukemia, 3.39 µM; with OVCAR-4 ovarian, 1820 nM; in the assay with OVCAR-8 ovarian it was 4.33 µM. Further, the GI50 in the assay on RPMI-8226 leukemia was 6.15 µM; in the assay with SR leukemia, 3.33 µM. For the same molecule, the TGI is 23.3 µM with 786-0 renal; 16.5 µM in the assay on ACHN renal; 4 µM in the assay with CAKI-1 renal; more than 100 µM with HL-60(TB) leukemia; 3.37 µM with OVCAR-4 ovarian; 15.9 µM with OVCAR-8 ovarian. Besides, the values for the TGI with RPMI-8226 leukemia and in the assay on SR leukemia were 26.5 µM and more than 100 µM, respectively.

Take `Cc1c(C(=O)CSc2nc3ccccc3[nH]2)c(=O)n(-c2ccccc2)n1C`: the TGI in the assay on 786-0 renal, with ACHN renal, with CAKI-1 renal, in the assay on HL-60(TB) leukemia, in the assay on HOP-92 NSCLC and with MALME-3M melanoma was more than 100 µM throughout. Moreover, the TGI with OVCAR-4 ovarian, in the assay with OVCAR-8 ovarian, with RPMI-8226 leukemia and in the assay on SR leukemia was more than 100 µM throughout.

Regarding `CNC(=O)CN(CC(N)=O)C(N)=O`, the TGI in the assay on 786-0 renal, in the assay on ACHN renal, with CAKI-1 renal, in the assay with HL-60(TB) leukemia, in the assay on HOP-92 NSCLC and with MALME-3M melanoma was more than 100 µM each time. Moreover, the TGI in the assay with OVCAR-4 ovarian, in the assay with OVCAR-8 ovarian, in the assay with RPMI-8226 leukemia and in the assay with SR leukemia was more than 100 µM throughout.

For `CC1=NN(C(=O)c2ccccc2O)C(=O)/C1=C/c1cccc([N+](=O)[O-])c1`, the TGI was more than 100 µM with 786-0 renal; more than 100 µM with ACHN renal; more than 100 µM in the assay on CAKI-1 renal; more than 62.9 µM in the assay with HL-60(TB) leukemia; more than 100 µM with HOP-92 NSCLC; more than 100 µM in the assay on MALME-3M melanoma. Also, the TGI with OVCAR-4 ovarian, in the assay with OVCAR-8 ovarian, in the assay on RPMI-8226 leukemia and with SR leukemia was more than 100 µM in each case.

`CC1CC[C@]2(C(=O)O)CCC3(C)C(=CCC4[C@@]5(C)CC[C@H](OS(=O)(=O)c6ccccc6)C(C)(C)C5CC[C@]43C)[C@@H]2[C@H]1C` (stereo partly specified): the TGI with 786-0 renal, with ACHN renal, in the assay with CAKI-1 renal, with HOP-92 NSCLC, in the assay on MALME-3M melanoma and in the assay with OVCAR-4 ovarian was more than 100 µM each time. In addition, the TGI with OVCAR-8 ovarian, in the assay with RPMI-8226 leukemia and with SR leukemia was more than 100 µM throughout.

Turning to `Nc1[nH]c(=O)ncc1CO`, the GI50 in the assay on 786-0 renal is more than 100 µM; in the assay on ACHN renal, more than 100 µM; in the assay on CAKI-1 renal it was more than 100000 nM; in the assay on HL-60(TB) leukemia it was more than 100 µM; in the assay on HOP-92 NSCLC, more than 100 µM; in the assay on MALME-3M melanoma, more than 100 µM. Also, the GI50 was more than 100000 nM in the assay with OVCAR-4 ovarian, more than 100 µM with OVCAR-8 ovarian, more than 100 µM in the assay on RPMI-8226 leukemia and more than 100 µM in the assay with SR leukemia. For the same molecule, the TGI in the assay on 786-0 renal, with ACHN renal, in the assay with CAKI-1 renal, with HL-60(TB) leukemia, with HOP-92 NSCLC and in the assay on MALME-3M melanoma was more than 100 µM each time. Besides, the TGI in the assay on OVCAR-4 ovarian, in the assay on OVCAR-8 ovarian, in the assay with RPMI-8226 leukemia and in the assay with SR leukemia was more than 100 µM in each case.

Consider `COc1ccc(C(O)CC(O)(C(F)(F)F)C(F)(F)F)cc1` (stereo unspecified), for which the TGI in the assay on 786-0 renal was more than 100 µM; in the assay with ACHN renal it was more than 100 µM; in the assay on CAKI-1 renal, 55.1 µM; with HL-60(TB) leukemia, 37 µM; with HOP-92 NSCLC, 44.4 µM; in the assay on MALME-3M melanoma, 49.1 µM. Also, the TGI with OVCAR-4 ovarian was more than 100 µM; with OVCAR-8 ovarian, more than 100 µM; with RPMI-8226 leukemia, 57.2 µM; in the assay on SR leukemia, 56.3 µM.

As to `COc1ccc(OC)c2c3c(ccc12)C(c1ccccc1)OC3=O` (stereo unspecified), the TGI with 786-0 renal, in the assay with ACHN renal, in the assay on CAKI-1 renal, with HL-60(TB) leukemia, with MALME-3M melanoma and in the assay with OVCAR-4 ovarian was more than 100 µM throughout. Also, the TGI in the assay on OVCAR-8 ovarian, in the assay with RPMI-8226 leukemia and in the assay with SR leukemia was more than 100 µM each time.

On to `Cc1nc(N)nc2ccccc12`, for which the TGI in the assay with 786-0 renal, with ACHN renal, in the assay with CAKI-1 renal, in the assay with HL-60(TB) leukemia, in the assay with HOP-92 NSCLC and in the assay with MALME-3M melanoma was more than 100 µM each time. For the same molecule, the TGI in the assay on OVCAR-4 ovarian, in the assay with OVCAR-8 ovarian, in the assay with RPMI-8226 leukemia and in the assay with SR leukemia was more than 100 µM each time.

For `COc1nc(NC2OC(COC(C)=O)C(OC(C)=O)C(OC(C)=O)C2OC(C)=O)c(-c2csc(N)n2)c(=O)n1C` (stereo unspecified), the TGI in the assay on 786-0 renal was 54.6 µM; in the assay with ACHN renal it was more than 100 µM; with CAKI-1 renal it was more than 100 µM; with HOP-92 NSCLC, more than 100 µM; with MALME-3M melanoma it was 78.8 µM; in the assay on OVCAR-4 ovarian, more than 100 µM. Further, the TGI in the assay on OVCAR-8 ovarian, in the assay with RPMI-8226 leukemia and in the assay with SR leukemia was more than 100 µM each time.

For `CC(NC(=O)c1ccccc1)(C(=O)O)C(=O)O`, the TGI with 786-0 renal, in the assay on ACHN renal, with CAKI-1 renal, in the assay on HL-60(TB) leukemia, in the assay with HOP-92 NSCLC and with MALME-3M melanoma was more than 100 µM each time. Moreover, the TGI in the assay on OVCAR-4 ovarian, in the assay with OVCAR-8 ovarian, with RPMI-8226 leukemia and in the assay with SR leukemia was more than 100 µM each time.

Turning to `O=C1C=CC2(C=C1)C[C@H](NC(=O)C(F)(F)F)C(=O)O2`, the TGI is more than 100 µM in the assay with 786-0 renal; more than 100 µM with ACHN renal; more than 100 µM in the assay with CAKI-1 renal; 36.1 µM in the assay on HL-60(TB) leukemia; 40.3 µM in the assay on MALME-3M melanoma; more than 100 µM in the assay with OVCAR-4 ovarian. Besides, the TGI with OVCAR-8 ovarian, with RPMI-8226 leukemia and in the assay with SR leukemia was more than 100 µM each time.

On to `COC1(OC)c2no[n+]([O-])c2C(OC)(OC)c2c1no[n+]2[O-]`, for which the TGI with 786-0 renal was 48.9 µM; in the assay with ACHN renal it was 68.5 µM; with CAKI-1 renal, 92.9 µM; in the assay on HL-60(TB) leukemia it was 87.6 µM; in the assay with MALME-3M melanoma, 29.4 µM; in the assay with OVCAR-4 ovarian it was more than 100 µM. Further, the TGI in the assay on OVCAR-8 ovarian came to 26.7 µM; in the assay with RPMI-8226 leukemia, 87.8 µM; in the assay on SR leukemia, 31.6 µM.
